# Source: US10278971B2, “Fluorocyclopentenylcytosine methods of use” (Rexahn Pharmaceuticals, Inc., priority 2015, dated 2019)
# Tests used:
# [1] = tested on: A549; assay: Cell cycle distribution and apoptosis by flow cytometry (PI, Annexin V); assay type: cell-based, human
# Procedure: (§1) The effect of RX-3117 on cell cycle regulation and cell death in human non-small cell lung cancer (NSCLC) cell lines A549 (adenocarcinoma), SW1573 (alveolar carcinoma) and SW1573/G- (SW1573 cell line resistant to gemcitabine) and H460 (large cell carcinoma) was assessed. The A549 and H460 cell lines were obtained from American Type Culture Collection (Manassas, Va., USA). The SW1573 cell line, obtained from Dr. Johan van Rijn (see Keiser et al., Cancer Research, 49:2988-2993 (1989)), also served as the parental cell line for SW1573/G-. A549, SW1573, and SW1573/G- and H460 were kept in exponential growth in T25 flasks (Greiner Bio-One GmbH, Frickenhausen, Germany) and cultured in Dulbecco's minimal essential medium (DMEM) or RPMI 1640 (A549) supplemented with 10% heat-inactivated fetal bovine serum (FBS) 1% streptomycin and penicillin 20 mM HEPES and maintained in 37° C. water saturated atmospheres of 5% CO2. For the cell cycle distribution, 1.5×10^5 cells were seeded in a T25 flask (Greiner Bio-One GmbH) and cultured for 72 hours after which 1 μM of RX-3117 was added and incubated for 24 hours. The cells were then harvested. After the treatment, the medium was collected in a 15 ml tube (Greiner Bio-One GmbH). The cells were washed with ice cold PBS and trypsinized (Lonza) at 37° C. The collected medium was used to inactivate trypsin of the corresponding sample and again collected in the 15 ml tube. The cells were centrifuged with the standard centrifuge program, 5 minutes at 4° C. and […]. The medium was removed, pellet washed with 1 ml PBS/0.01% BSA and centrifuged. After removal of the supernatant, the cells were fixed with 1 ml 70% ethanol and incubated at −20° C. for at least 24 hours. Subsequently, the cells were centrifuged, washed with 1 ml PBS/0.1% BSA and transferred to a FALCON FACS tube (BD, Franklin Lakes, N.J., USA). The cells were centrifuged, and the supernatant was removed followed by the addition of 0.5 μg propidium iodide (PI) (Sigma, St. Louis, Mo., USA), 0.1% trisodium citrate (Riedel-de Haen, Sigma-Aldrich Laborchemikalien GmbH, St. Louis, Mo., USA), 0.1% Triton X-100™ (Merck) and 0.1 mg/ml RNase (Sigma) (PI solution) to the samples. Subsequently, for at least 15 minutes, the cells were incubated on ice with the PI solution to stain the DNA before starting the analysis. The cells stained with the PI solution were analyzed by FACSCalibur™ (BD Biosciences, Mount View, Calif., USA). Data was analyzed with CellQuest™ Pro software.
# (§2) Cell cycle distribution and apoptosis were analyzed by plating cells in flat bottom 6 well plates (Greiner Bio-One GmbH, Frickenhausen, Germany) at the density of 5,000 cells and allowed to attach for 24 h. Thereafter cytotoxic concentrations of 5×IC50 were added. The exposure time was 24 h and 48 h and for comparison the control group was included. At each time point total amount of adherent and floating cells were harvested in round-bottom FALCON tubes (BD, Franklin Lakes, N.J., USA). After centrifugation, cell pellets were resuspended in 1.0 ml propidium iodide (PI) solution (50 ug/ml PI, 0.1% sodium citrate 0.1% Triton X-100, 0.1 mg/ml ribonuclease A) or 10 ul Annexin V (cat#31490014, Immunotools) and left on ice for 30 minutes. Subsequently, samples were analyzed using FACSCalibur (BD Biosciences, Mount View, Calif., USA). For data analysis CELLQuest™ software was carried out, using gates on DNA histograms to estimate the amount of cells in sub-G1 phase (apoptotic cells).
# [2] = tested on: SW1573; assay: as above; assay type: cell-based, human
# Procedure: as §1, §2
# [3] = tested on: SW1573; conditions: as reported in Peters et al. 2013; cited from earlier work
# [4] = tested on: SW1573/G; conditions: as reported in Peters et al. 2013; cited from earlier work
# [5] = target: cytidine deaminase (CDA) (Homo sapiens, UniProt P32320); conditions: cited from earlier work
# Chain of cytidine deaminase (CDA) (P32320 whole entry, species assumed): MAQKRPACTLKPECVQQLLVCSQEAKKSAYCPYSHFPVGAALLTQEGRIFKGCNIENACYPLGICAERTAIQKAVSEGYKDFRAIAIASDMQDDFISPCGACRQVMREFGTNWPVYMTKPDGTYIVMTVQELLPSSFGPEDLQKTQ
smiles,measurement,setting,value
"Nc1ccn([C@@H]2C(F)=C(CO)[C@@H](O)[C@H]2O)c(=O)n1 [RX-3117, 4-amino-1-((1S,4R,5S)-2-fluoro-4,5-dihydroxy-3-hydroxymethyl-cyclopent-2-enyl)-1H-pyrimidin-2-one]",accumulation of cells in the G1 phase,"[1]; A549, 1 μM, 24 hour exposure",induced accumulation
same,increased accumulation of cells in the G1 phase,"[1]; A549, 1 μM, 24 hour exposure",20-40%
same,"apoptosis, Annexin V stained cells","[1]; A549, 5 μM, 24, 48, 72 and 96 hour exposure",induced apoptosis
same,"apoptosis, PI stained cells in the sub-G1 phase","[1]; A549, 5×IC50, 24 and 48 hour exposure",induced apoptosis
same,accumulation of cells in the S-phase,"[1]; A549, 5×IC50, 24 and 48 hours",induced the accumulation
same,cell kill,"[1]; A549, 24 hour exposure",No cell kill
same,accumulation in S phase,"[1]; A549, 48 hour exposure",45%
same,cell kill,"[1]; A549, 48 hour exposure",8%
same,accumulation of cells in the G1 phase,"[2]; SW1573, 1 μM, 24 hour exposure",induced accumulation
same,increased accumulation of cells in the G1 phase,"[2]; SW1573, 1 μM, 24 hour exposure",20-40%
same,"apoptosis, Annexin V stained cells","[2]; SW1573, 10 μM, 24, 48, 72 and 96 hour exposure",induced apoptosis
same,"apoptosis, PI stained cells in the sub-G1 phase","[2]; SW1573, 5×IC50, 24 and 48 hour exposure",induced apoptosis
same,accumulation of cells in the S-phase,"[2]; SW1573, 5×IC50, 24 and 48 hours",induced the accumulation
same,cell kill,"[2]; SW1573, 24 hour exposure",No cell kill
same,cell kill,"[2]; SW1573, 48 hour exposure",15%
same,IC50,[3],13.7 µM
same,IC50,[4],7.3 µM
same,substrate for cytidine deaminase (CDA),[5]; Peters et al. 2013,poor substrate
same,rate of deamination,[5]; compared with gemcitabine,much slower than gemcitabine
